Test results: US10869858B2, “Therapeutic agent for amyotrophic disorders” (TOHOKU UNIVERSITY, priority 2015, dated 2020)

What was measured:
[1] = system: ALS patient-derived fibroblasts; experiment: Inhibitory effect on cell death of ALS patient-derived fibroblasts induced by oxidative stress (BSO 100 μmol/L), Method 1, Cell Counting Kit-8; type: cell-based; details: 100 μmol/L BSO; compound at 10 and 30 μmol/L; two days with compound; FIG. 1
Description: (§1) ALS patient-derived fibroblasts can be used to confirm the inhibitory effect of the compound of the present invention on cell death induced by treating the ALS patient-derived fibroblasts with the glutathione synthesis inhibitor, L-buthionine(S, R)sulfoximine (BSO).
6.4×10^3 Cells per well of ALS patient-derived fibroblasts were seeded in a 96-well cell culture plate using a DMEM medium containing 1% FBS. One day after cell seeding, BSO was mixed in the culture medium so that the concentration thereof was 100 μmol/L. After culturing in the presence of BSO for one day, the compound of Example 1 was mixed in the culture medium so that the concentration thereof is 1, 3, 10 or 30 μmol/L. After culturing in the presence of the compound for another two days, the number of living cells in each well was counted by using Cell Counting Kit-8 (manufactured by Dojindo Laboratories) to calculate cell viability. Here, wells to which both BSO and the compound were not added but distilled water and DMSO that were solvents for BSO and the compound, respectively were added were used as a control of the oxidative stress loading; wells to which both BSO and the compound were added were used as a control for the effect of the test compound.

[2] = system: ALS patient-derived fibroblasts; experiment: Cell viability of ALS patient-derived fibroblasts treated with BSO 500 μmol/L, Method 2, Cell Counting Kit-8; type: cell-based; details: 500 μmol/L BSO; compound at 0.1, 0.3, 1, 3 and 10 μmol/L; three days with compound; FIG. 2
Description: as §1
(§2) 3.0×10^3 Cells per well of ALS patient-derived fibroblasts were seeded in a 96-well cell culture plate using a DMEM (low glucose) medium containing 1% FBS. One day after cell seeding, BSO was mixed in the culture medium so that the concentration thereof is 500 μmol/L. After culturing in the presence of BSO for one day, the compound of Example 1 was mixed in the culture medium so that the concentration thereof is 0.1, 0.3, 1, 3 or 10 μmol/L. After culturing in the presence of the compound for another three days, the number of living cells in each well was counted by using Cell Counting Kit-8 (manufactured by Dojindo Laboratories) to calculate cell viability. In addition, the degree of cell damage was measured by using LDH Cytotoxicity Detection Kit (manufactured by Takara Bio Inc.). Here, wells to which both BSO and the compound were not added but distilled water and DMSO that were solvents for BSO and the compound, respectively were added were used as a control of the oxidative stress loading; wells to which both BSO and the compound were added were used as a control for the effect of the test compound.

[3] = system: ALS patient-derived fibroblasts; experiment: Degree of cell damage of ALS patient-derived fibroblasts treated with BSO 500 μmol/L, Method 2, LDH Cytotoxicity Detection Kit; type: cell-based; details: 500 μmol/L BSO; compound at 0.1, 0.3, 1, 3 and 10 μmol/L; three days with compound; FIG. 2
Description: as §1, §2

wobbler mice = experiment: Rotarod test in ALS animal models (wobbler mice); type: in vivo; details: 150 mg/kg orally once a day, 16 days after administration start, 10 rpm, n=14; control group 43%; P=0.018
Description: To 4-week-old wobbler mice, the compound of Example 1 (150 mg/kg) or a solvent, a 0.5% aqueous solution of methyl cellulose as a control was orally administered at a rate of 10 mL/kg once a day. Sixteen days after administration start date, the animals were placed on a mouse rotarod (manufactured by Muromachi Kikai Co., Ltd.) set at a rotation speed of 10 rpm and the time to fall was measured (rotarod test). The rotarod walking time was measured three times, and the upper limit of one measurement time was 300 seconds.

## O=C(CC(C(=O)O)c1c[nH]c2ccccc12)c1ccc(F)cc1F (stereo not shown) [Example 1, 4-(2,4-difluorophenyl)-2-(1H-indol-3-yl)-4-oxobutanoic acid]
[1]
  inhibition of cell death induced by BSO (cell viability): statistically significantly inhibited cell death
[2]
  prevention of low cell viability induced by BSO: statistically significantly prevented the low cell viability
[3]
  prevention of cytotoxicity (degree of cell damage, LDH) induced by BSO: statistically significantly prevented
Wobbler mice
  occurrence ratio of animals whose rotarod walking time exceeded 300 seconds: 86%
